Measured values: US11377441B2, “Covalent inhibitors of KRAS” (Araxes Pharma LLC, priority 2017, dated 2022)

Molecular target: T1, KRAS G12C 1-169, his-tagged protein, GDP-loaded (Homo sapiens, UniProt P01116, G12C)
T1 construct: KRAS G12C 1-169, his-tagged protein, GDP-loaded
Experiment: Biochemical assay: covalent modification of KRAS G12C measured by mass spectrometry (RapidFire/TOF or Q-Exactive)
Type: binding
Conditions: covalent binding to (modification of) KRAS G12C after a ten minute incubation period
Procedure, shortened: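 GDP-loaded KRAS G12C 1-169 (his-tagged) at 2 μM or 0.5 μM in 20 mM Hepes, 150 mM NaCl, 1 mM MgCl2, incubated with compound at 100, 30 or 10 μM at room temperature for 10 min, 30 min, 2 h or 24 h, then quenched with formic acid. Intact-protein LC-MS, deconvolved; percent modification from modified versus unmodified protein.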

| SMILES | Binding % |
| --- | --- |
| C=CC(=O)N1C[C@H](C)N(c2nc(N3CC(NC)C3)nc3c(F)c(-c4c(C)ccc5cnn(C6CC6)c45)c(Cl)cc23)C[C@H]1C (atropisomer, axis not shown) [Compound 208, 1-((2R,5S)-4-((R)-6-chloro-7-(1-cyclopropyl-6-methyl-1H-indazol-7-yl)-8-fluoro-2-(3-(methylamino)azetidin-1-yl)quinazolin-4-yl)-2,5-dimethylpiperazin-1-yl)prop-2-en-1-one] | +++ (+++ indicates binding activity greater than 80%) |
| C=CC(=O)N1C[C@H](C)N(c2nc(N3CC(N(C)C)C3)nc3c(F)c(-c4c(C)ccc5cnn(C6CC6)c45)c(Cl)cc23)C[C@H]1C [Compound 128, 1-((2R,5S)-4-(6-chloro-7-(1-cyclopropyl-6-methyl-1H-indazol-7-yl)-2-(3-(dimethylamino)azetidin-1-yl)-8-fluoroquinazolin-4-yl)-2,5-dimethylpiperazin-1-yl)prop-2-en-1-one] | +++ (+++ indicates binding activity greater than 80%) |
| C=CC(=O)N1CCN(c2nc(N3CC(N(C)C)C3)nc3c(F)c(-c4c(C)ccc5cnn(C)c45)c(Cl)cc23)C[C@H]1C (atropisomer, axis not shown) [Compound 144, 1-((R)-4-((R)-6-chloro-7-(1,6-dimethyl-1H-indazol-7-yl)-2-(3-(dimethylamino)azetidin-1-yl)-8-fluoroquinazolin-4-yl)-2-methylpiperazin-1-yl)prop-2-en-1-one] | +++ (+++ indicates binding activity greater than 80%) |
| C=CC(=O)N1C[C@H](C)N(c2nc(O[C@H](C)CN(C)C)nc3c(F)c(-c4c(C)ccc5cnn(C)c45)c(Cl)cc23)C[C@H]1C [Compound 230, 1-((2R,5S)-4-(6-chloro-7-(1,6-dimethyl-1H-indazol-7-yl)-2-((R)-1-(dimethylamino)propan-2-yloxy)-8-fluoroquinazolin-4-yl)-2,5-dimethylpiperazin-1-yl)prop-2-en-1-one] | ++ (++ indicates binding activity from 50 to 80%) |
| C=CC(=O)N1[C@H](C)CN(c2nc(N3CC(N(C)C)C3)nc3c(F)c(-c4c(C)ccc5[nH]nc(C6CC6)c45)c(Cl)cc23)C[C@@H]1C (atropisomer, axis not shown) [Compound 133, 1-((2S,6R)-4-((S)-6-chloro-7-(3-cyclopropyl-5-methyl-1H-indazol-4-yl)-2-(3-(dimethylamino)azetidin-1-yl)-8-fluoroquinazolin-4-yl)-2,6-dimethylpiperazin-1-yl)prop-2-en-1-one] | + (+ indicates binding activity greater than 0% and up to 50%) |
| C=CC(=O)N1C[C@H](C)N(c2nc(NC(C)=O)nc3c(F)c(-c4c(C)ccc5[nH]nc(C6CC6)c45)c(Cl)cc23)C[C@H]1C [Compound 259, N-(4-((2S,5R)-4-acryloyl-2,5-dimethylpiperazin-1-yl)-6-chloro-7-(3-cyclopropyl-5-methyl-1H-indazol-4-yl)-8-fluoroquinazolin-2-yl)acetamide] | ++ (++ indicates binding activity from 50 to 80%) |
| C=CC(=O)N1C[C@H](C)N(c2nc(C#CCOC)nc3c(F)c(-c4c(C)ccc5cnn(C)c45)c(Cl)cc23)C[C@H]1C [Compound 258, 1-((2R,5S)-4-(6-chloro-7-(1,6-dimethyl-1H-indazol-7-yl)-8-fluoro-2-(3-methoxyprop-1-ynyl)quinazolin-4-yl)-2,5-dimethylpiperazin-1-yl)prop-2-en-1-one] | +++ (+++ indicates binding activity greater than 80%) |
| C=CC(=O)N1C[C@H](C)N(c2nc(OC[C@@H]3COCCN3C)nc3c(F)c(-c4c(C)ccc5[nH]nc(C)c45)c(Cl)cc23)C[C@H]1C [Compound 184, 1-((2R,5S)-4-(6-chloro-7-(3,5-dimethyl-1H-indazol-4-yl)-8-fluoro-2-(((S)-4-methylmorpholin-3-yl)methoxy)quinazolin-4-yl)-2,5-dimethylpiperazin-1-yl)prop-2-en-1-one] | +++ (+++ indicates binding activity greater than 80%) |
| C=CC(=O)N1C[C@H](C)N(c2nc(OC[C@H]3CCCN3C)nc3c(F)c(-c4c(C)ccc5cnn(C)c45)c(Cl)cc23)C[C@H]1C (atropisomer, axis not shown) [Compound 236, 1-((2R,5S)-4-((R)-6-chloro-7-(1,6-dimethyl-1H-indazol-7-yl)-8-fluoro-2-(((R)-1-methylpyrrolidin-2-yl)methoxy)quinazolin-4-yl)-2,5-dimethylpiperazin-1-yl)prop-2-en-1-one] | + (+ indicates binding activity greater than 0% and up to 50%) |
| C=CC(=O)N1CC2CCC(C1)N2c1nc(N2CC(N(C)C)C2)nc2c(F)c(-c3c(C)ccc4[nH]nc(N)c34)c(Cl)cc12 [Compound 43, 1-((1R,5S)-8-(7-(3-amino-5-methyl-1H-indazol-4-yl)-6-chloro-2-(3-(dimethylamino)azetidin-1-yl)-8-fluoroquinazolin-4-yl)-3,8-diazabicyclo[3.2.1]oc-tan-3-yl)prop-2-en-1-one] | + (+ indicates binding activity greater than 0% and up to 50%) |
| C=CC(=O)N1C[C@H](C)N(c2nc(N3CC(N(C)C)C3)nc3c(F)c(-c4c(C)ccc5cnn(C)c45)c(Cl)cc23)C[C@@H]1C (atropisomer, axis not shown) [Compound 249, 1-((2S,5S)-4-((R)-6-chloro-7-(1,6-dimethyl-1H-indazol-7-yl)-2-(3-(dimethylamino)azetidin-1-yl)-8-fluoroquinazolin-4-yl)-2,5-dimethylpiperazin-1-yl)prop-2-en-1-one] | + (+ indicates binding activity greater than 0% and up to 50%) |
| C=CC(=O)N1C[C@H](C)N(c2nc(N3CC(N(C)C)C3)nc3c(F)c(-c4c(C)ccc5ncn(C)c45)c(Cl)cc23)C[C@H]1C [Compound 132, 1-((2R,5S)-4-(6-chloro-7-(1,6-dimethyl-1H-benzo[d]imidazol-7-yl)-2-(3-(dimethylamino)azetidin-1-yl)-8-fluoroquinazolin-4-yl)-2,5-dimethylpiperazin-1-yl)prop-2-en-1-one] | + (+ indicates binding activity greater than 0% and up to 50%) |
| C=CC(=O)N1[C@H](C)CN(c2nc(N3CC(N(C)C)C3)nc3c(F)c(-c4c(C)ccc5[nH]nc(C)c45)c(Cl)cc23)C[C@@H]1C (atropisomer, axis not shown) [Compound 152, 1-((2S,6R)-4-((R)-6-chloro-7-(3,5-dimethyl-1H-indazol-4-yl)-2-2(3-(dimethylamino)azetidin-1-yl)-8-fluoroquinazolin-4-yl)-2,6-dimethylpiperazin-1-yl)prop-2-en-1-one] | +++ (+++ indicates binding activity greater than 80%) |
| C=CC(=O)N1C[C@H](C)N(c2nc(O[C@H](C)CN(C)C)nc3c(F)c(-c4c(C)ccc5[nH]nc(C6CC6)c45)c(Cl)cc23)C[C@H]1C [Compound 231, 1-((2R,5S)-4-(6-chloro-7-(3-cyclopropyl-5-methyl-1H-indazol-4-yl)-2-((R)-1-(dimethylamino)propan-2-yloxy)-8-fluoroquinazolin-4-yl)-2,5-dimethylpiperazin-1-yl)prop-2-en-1-one] | ++ (++ indicates binding activity from 50 to 80%) |
